≈ marks a conversion by molar mass, not a printed value.

For this assay, the system named is M. abscessus. As to the kind of experiment: MIC determination, CLSI M24-A. The format is cell-based. Particulars: Mycobacteroides abscessus, CLSI M24-A.
One may read the MIC as the smallest concentration in the dilution series that meets the test's criterion for growth inhibition. Read a low MIC as inhibition by little substance. As for `CC12CC3CC(C)(C1)CC(C(=O)Nc1nc4ccccc4[nH]1)(C3)C2` [Example 146, N-(1H-1,3-benzodiazol-2-yl)-3,5-dimethyladamantane-1-carboxamide], the minimum inhibitory concentration (MIC) is 2 to 32 µg/mL (≈ 6.18 to 98.9 µM). For the compound `CC12CC3CC(C)(C1)CC(C(=O)Nc1nc4ccccc4o1)(C3)C2` [Example 147, N-(1,3-benzoxazol-2-yl)-3,5-dimethyladamantane-1-carboxamide], the MIC is 2 to 32 µg/mL (≈ 6.16 to 98.6 µM). Compound `O=C(Nc1nc2ccc(C(F)(F)F)cc2s1)C1CCCC2(CC2)C1` (stereo not drawn) [Example 148, N-[6-(trifluoromethyl)-1,3-benzothiazol-2-yl]spiro[2.5]octane-5-carboxamide] yielded an MIC of 2 to 32 µg/mL (≈ 5.64 to 90.3 µM).

As for `CC1CCCC(NC(=O)Nc2nc3ccc(C(F)(F)F)cc3s2)C1` (stereo not drawn) [Example 149, 1-(3-methylcyclohexyl)-3-[6-(trifluoromethyl)-1,3-benzothiazol-2-yl]urea], the minimal inhibitory concentration (MIC) was 2 to 32 µg/mL (≈ 5.6 to 89.5 µM). With `CC12CC3CC(C)(C1)CC(C(=O)Nc1nc4ccc(C(F)(F)F)cc4o1)(C3)C2` [Example 150, 3,5-dimethyl-N-[6-(trifluoromethyl)-1,3-benzoxazol-2-yl]adamantane-1-carboxamide], the MIC was in the range of 2 to 32 µg/mL (≈ 5.1 to 81.5 µM).

`CC1CC(C(=O)Nc2nc3cc(Cl)c(Cl)cc3[nH]2)CC(C)(C)C1` (stereo not drawn) [Example 151, N-(5,6-dichloro-1H-1,3-benzodiazol-2-yl)-3,3,5-trimethylcyclohexane-1-carboxamide] registered a minimal inhibitory concentration (MIC) of 2 to 32 µg/mL (≈ 5.65 to 90.3 µM). As to `CC1CCC(C(=O)Nc2nc3ccc(C(F)(F)F)cc3s2)C1` (stereo not drawn) [Example 152, 3-methyl-N-[6-(trifluoromethyl)-1,3-benzothiazol-2-yl]cyclopentane-1-carboxamide], the minimal inhibitory concentration (MIC) was 2 to 32 µg/mL (≈ 6.09 to 97.5 µM). Compound `CC1(C(=O)Nc2nc3cc(Br)ccc3s2)CCCC1` [Example 153, N-(5-bromo-1,3-benzothiazol-2-yl)-1-methylcyclopentane-1-carboxamide] had an MIC of 2 to 32 µg/mL (≈ 5.9 to 94.3 µM). As for `CC1(C(=O)Nc2nc3c(F)c(F)c(F)cc3s2)CCCCC1` [Example 154, 1-methyl-N-(4,5,6-trifluoro-1,3-benzothiazol-2-yl)cyclohexane-1-carboxamide], the figure is 2 to 32 µg/mL (≈ 6.09 to 97.5 µM); as for `O=C(Nc1nc2ccccc2o1)C12CC3CC(CC(C3)C1)C2` [Example 155, N-(1,3-benzoxazol-2-yl)adamantane-1-carboxamide], 2 to 32 µg/mL (≈ 6.75 to 108 µM); as for `O=C(Nc1nc2ccc(OC(F)F)cc2s1)C1CCCCC1` [Example 156, N-[6-(difluoromethoxy)-1,3-benzothiazol-2-yl]cyclohexanecarboxamide], 2 to 32 µg/mL (≈ 6.13 to 98 µM). Next, `O=C(Nc1nc2c(F)cc(F)cc2s1)C1CCCCC1` [Example 157, N-(4,6-difluoro-1,3-benzothiazol-2-yl)cyclohexanecarboxamide]: 2 to 32 µg/mL (≈ 6.75 to 108 µM).

The compound `CC1CC(C(=O)Nc2nc3ccc(Br)cc3o2)CC(C)(C)C1` (stereo not drawn) [Example 158, N-(6-bromo-1,3-benzoxazol-2-yl)-3,3,5-trimethylcyclohexane-1-carboxamide] registered an MIC of 2 to 32 µg/mL (≈ 5.48 to 87.6 µM). In turn, `O=C(Nc1nc2ccccc2o1)C1CC2CCCC(C2)C1` (stereo not drawn) [Example 159, N-(1,3-benzoxazol-2-yl)bicyclo[3.3.1]nonane-3-carboxamide] had a minimal inhibitory concentration (MIC) of 2 to 32 µg/mL (≈ 7.03 to 113 µM). Next, `O=C(Nc1cc2ccccc2s1)C1CCCCCC1` [Example 160, N-(1-benzothiophen-2-yl)cycloheptanecarboxamide]: 2 to 32 µg/mL (≈ 7.32 to 117 µM).

`Cc1cc(C)c2oc(NC(=O)C34CC5CC(C)(CC(C)(C5)C3)C4)nc2c1` [Example 161, N-(5,7-dimethyl-1,3-benzoxazol-2-yl)-3,5-dimethyladamantane-1-carboxamide]: the MIC was 2 to 32 µg/mL (≈ 5.67 to 90.8 µM).

The compound `COc1ccc2nc(NC(=O)C3CC(C)CC(C)(C)C3)oc2c1` (stereo not drawn) [Example 162, N-(6-methoxy-1,3-benzoxazol-2-yl)-3,3,5-trimethylcyclohexane-1-carboxamide] came in with a minimal inhibitory concentration (MIC) of 2 to 32 µg/mL (≈ 6.32 to 101 µM). For the compound `CC1CC(C(=O)Nc2nc3ccc(C(F)(F)F)cc3o2)CC(C)(C)C1` (stereo not drawn) [Example 163, 3,3,5-trimethyl-N-[6-(trifluoromethyl)-1,3-benzoxazol-2-yl]cyclohexane-1-carboxamide], the MIC fell in the range of 2 to 32 µg/mL (≈ 5.64 to 90.3 µM). Next, `CC12CC3CC(C)(C1)CC(C(=O)Nc1nc4cc(Cl)c(Cl)cc4[nH]1)(C3)C2` [Example 164, N-(5,6-dichloro-1H-1,3-benzodiazol-2-yl)-3,5-dimethyladamantane-1-carboxamide]: 2 to 32 µg/mL (≈ 5.1 to 81.6 µM); `CC1CC(C(=O)Nc2nc3ccccc3o2)CC(C)(C)C1` (stereo not drawn) [Example 165, N-(1,3-benzoxazol-2-yl)-3,3,5-trimethylcyclohexane-1-carboxamide]: 2 to 32 µg/mL (≈ 6.98 to 112 µM).

`CC1CCCCC1C(=O)Nc1nc2ccccc2s1` (stereo not drawn) [Example 166, N-(1,3-benzothiazol-2-yl)-2-methylcyclohexane-1-carboxamide] yielded a minimal inhibitory concentration (MIC) of 2 to 32 µg/mL (≈ 7.29 to 117 µM). Compound `CC1CCCC(C(=O)Nc2nc3c(Cl)cccc3s2)C1` (stereo not drawn) [Example 167, N-(4-chloro-1,3-benzothiazol-2-yl)-3-methylcyclohexane-1-carboxamide] gave an MIC of 2 to 32 µg/mL (≈ 6.48 to 104 µM). `CC1CCCC(C(=O)Nc2nc3ccc(Cl)cc3s2)C1` (stereo not drawn) [Example 168, N-(6-chloro-1,3-benzothiazol-2-yl)-3-methylcyclohexane-1-carboxamide] showed a minimum inhibitory concentration (MIC) of 2 to 32 µg/mL (≈ 6.48 to 104 µM). As for `CC1CCCC(C(=O)Nc2nc3c(F)cc(F)cc3s2)C1` (stereo not drawn) [Example 169, N-(4,6-difluoro-1,3-benzothiazol-2-yl)-3-methylcyclohexane-1-carboxamide], the figure is 2 to 32 µg/mL (≈ 6.44 to 103 µM). `CC1CCCC(C(=O)Nc2nc3ccc(F)cc3s2)C1` (stereo not drawn) [Example 170, N-(6-fluoro-1,3-benzothiazol-2-yl)-3-methylcyclohexane-1-carboxamide] returned an MIC of 2 to 32 µg/mL (≈ 6.84 to 109 µM).

`CC1(C(=O)Nc2nc3c(F)cc(F)cc3s2)CCCCC1` [Example 171, N-(4,6-difluoro-1,3-benzothiazol-2-yl)-1-methylcyclohexane-1-carboxamide] yielded a minimal inhibitory concentration (MIC) of 2 to 32 µg/mL (≈ 6.44 to 103 µM). As for `CC1(C(=O)Nc2nc3ccc(OC(F)F)cc3s2)CCCCC1` [Example 172, N-[6-(difluoromethoxy)-1,3-benzothiazol-2-yl]-1-methylcyclohexane-1-carboxamide], the figure is 2 to 32 µg/mL (≈ 5.88 to 94 µM). For `CC(C)(C)C(=O)Nc1nc2ccc(OC(F)(F)F)cc2s1` [Example 173, 2,2-dimethyl-N-[6-(trifluoromethoxy)-1,3-benzothiazol-2-yl]propanamide], the MIC lay within 2 to 32 µg/mL (≈ 6.28 to 101 µM). As for `CC1CC(C(=O)Nc2nc3cccc(O)c3s2)CC(C)(C)C1` (stereo not drawn) [Example 174, N-(7-hydroxy-1,3-benzothiazol-2-yl)-3,3,5-trimethylcyclohexane-1-carboxamide], the figure is 2 to 32 µg/mL (≈ 6.28 to 100 µM). For the compound `CC1CC(C(=O)Nc2nc3cc(F)c(F)cc3o2)CC(C)(C)C1` (stereo not drawn) [Example 175, N-(5,6-difluoro-1,3-benzoxazol-2-yl)-3,3,5-trimethylcyclohexane-1-carboxamide], the MIC is 2 to 32 µg/mL (≈ 6.2 to 99.3 µM). As for `O=C(Nc1cc2ccccc2s1)C1CCCCC1` [Example 176, N-(1-benzothiophen-2-yl)cyclohexanecarboxamide], the figure is 2 to 32 µg/mL (≈ 7.71 to 123 µM); as for `CC1CC(C(=O)Nc2nc3ccc(SC(F)(F)F)cc3s2)CC(C)(C)C1` (stereo not drawn) [Example 177, 3,3,5-trimethyl-N-{6-[(trifluoromethyl)sulfanyl]-1,3-benzothiazol-2-yl}cyclohexane-1-carboxamide], 2 to 32 µg/mL (≈ 4.97 to 79.5 µM); as for `CC1CC(C(=O)Nc2nc3ccc(F)cc3[nH]2)CC(C)(C)C1` (stereo not drawn) [Example 178, N-(6-fluoro-1H-1,3-benzodiazol-2-yl)-3,3,5-trimethylcyclohexane-1-carboxamide], 2 to 32 µg/mL (≈ 6.59 to 105 µM). Next, `CC1CC(C(=O)Nc2nc3c(Cl)cccc3s2)CC(C)(C)C1` (stereo not drawn) [Example 179, N-(4-chloro-1,3-benzothiazol-2-yl)-3,3,5-trimethylcyclohexane-1-carboxamide]: 2 to 32 µg/mL (≈ 5.94 to 95 µM); `Cc1cccc2sc(NC(=O)C3CCCC(C)C3)nc12` (stereo not drawn) [Example 180, 3-methyl-N-(4-methyl-1,3-benzothiazol-2-yl)cyclohexane-1-carboxamide]: 2 to 32 µg/mL (≈ 6.93 to 111 µM); `COc1ccc2nc(NC(=O)C3CCCC(C)C3)sc2c1` (stereo not drawn) [Example 181, N-(6-methoxy-1,3-benzothiazol-2-yl)-3-methylcyclohexane-1-carboxamide]: 2 to 32 µg/mL (≈ 6.57 to 105 µM).

`CC1CCCC(C(=O)Nc2nc3ccccc3s2)C1` (stereo not drawn) [Example 182, N-(1,3-benzothiazol-2-yl)-3-methylcyclohexane-1-carboxamide] had an MIC of 2 to 32 µg/mL (≈ 7.29 to 117 µM). Compound `Cc1cccc2sc(NC(=O)C3CC4CCC3C4)nc12` (stereo not drawn) [Example 183, N-(4-methyl-1,3-benzothiazol-2-yl)bicyclo[2.2.1]heptane-2-carboxamide] yielded an MIC of 2 to 32 µg/mL (≈ 6.98 to 112 µM). As for `CC12CCCC(C(=O)Nc3nc4cc(Cl)cc(Cl)c4o3)(CCC1)C2` [Example 184, N-(5,7-dichloro-1,3-benzoxazol-2-yl)-5-methylbicyclo[3.3.1]nonane-1-carboxamide], the figure is 2 to 32 µg/mL (≈ 5.45 to 87.1 µM).

`CC1(C(=O)Nc2nc3ccc(OC(F)(F)F)cc3s2)CC2CCC1O2` (stereo not drawn) [Example 185, 2-methyl-N-[6-(trifluoromethoxy)-1,3-benzothiazol-2-yl]-7-oxabicyclo[2.2.1]heptane-2-carboxamide] displayed a minimum inhibitory concentration (MIC) of 2 to 32 µg/mL (≈ 5.37 to 85.9 µM). With `CC1CC(C(=O)Nc2nc3ccc(N(C)C)cc3s2)CC(C)(C)C1` (stereo not drawn) [Example 186, N-[6-(dimethylamino)-1,3-benzothiazol-2-yl]-3,3,5-trimethylcyclohexane-1-carboxamide], the minimum inhibitory concentration (MIC) lay within 2 to 32 µg/mL (≈ 5.79 to 92.6 µM). Next, `O=C(Nc1nc2ccccc2o1)C1CCCCCCC1` [Example 187, N-(1,3-benzoxazol-2-yl)cyclooctanecarboxamide]: 2 to 32 µg/mL (≈ 7.34 to 117 µM). Consider `O=C(Nc1nc2ccc(OC(F)(F)F)cc2s1)C1CCCCC1` [Example 188, N-[6-(trifluoromethoxy)-1,3-benzothiazol-2-yl]cyclohexanecarboxamide], for which the MIC lay within 2 to 32 µg/mL (≈ 5.81 to 92.9 µM). Compound `CC1CC(C(=O)Nc2nc3c(F)cc(F)cc3o2)CC(C)(C)C1` (stereo not drawn) [Example 189, N-(4,6-difluoro-1,3-benzoxazol-2-yl)-3,3,5-trimethylcyclohexane-1-carboxamide] displayed a minimal inhibitory concentration (MIC) of 2 to 32 µg/mL (≈ 6.2 to 99.3 µM). Compound `CC1CC(C(=O)Nc2nc3cc(Br)ccc3s2)CC(C)(C)C1` (stereo not drawn) [Example 190, N-(5-bromo-1,3-benzothiazol-2-yl)-3,3,5-trimethylcyclohexane-1-carboxamide] showed an MIC of 2 to 32 µg/mL (≈ 5.24 to 83.9 µM).
